Laboratory results taken from patent US20200208108A1, “INTERFERON PRIMED PLASMACYTOID DENDRITIC CELLS” (AARHUS UNIVERSITET, priority 2017, published 2020).

Experiments:
Format in all cases: cell-based, human
[1] = test system: HSPC-pDCs; experiment: IL-6 in supernatants after TLR7/TLR9 agonist stimulation (ELISA); conditions: separate priming; TLR7 and TLR9 agonists
Protocol: (§1) HSPC-pDCs were cultured in RPMI-1640 medium with 10% heat inactivated FCS, 600 μg/mL L-glutamine, 200 U/mL penicillin and 100 μg/mL streptomycin, but depleted for growth factors used for the cultivation process. As described in individual figure legends, medium was supplemented with IFN-β (PBL Assay Science), IFN-γ (PeproTech) or both cytokines simultaneously (IFN-β+γ). After 24 (day 21+1) or 72 (day 21+3) hours, cells were washed in warm medium, and phenotypically or functionally characterized.
(§2) For functional characterization, cells were seeded in 96-well plates. During stimulation cells were kept in medium with 20 ng/mL IL-3. Twenty hours post stimulation supernatants were harvested and kept at −20° C. until cytokine quantifications. For phenotypic characterization, primed cells were seeded out in 48-well plates and stimulated for 24 hours before phenotypic analysis by flow cytometry.
Protein levels of IL-6 in supernatants were evaluated using ELISA kits (Biolegend) following the manufacturers instructions.

[2] = test system: HSPC-pDCs; experiment: Phenotypic analysis of pDC-related and maturation surface markers by flow cytometry; conditions: priming from day 21, with IL-3
Protocol: as §1, §2
Immunophenotypical analysis was performed using flow cytometry. Briefly, 2×10^5 cells were spun down and resuspended in PBS with 0.5% BSA and 0.09% NaN3. […] Fluorescence intensities were measured on a LSR Fortessa flow cytometer (Becton Dickinson) with four lasers (405, 488, 561 and 640 nm) and 18 photomultiplier (PMT) detectors. […] Data were analyzed using FlowJo software (version 10, Tree Star, Ashland, Oreg., USA). […]

[3] = test system: HSPC-pDCs; experiment: Functional type I IFN in supernatants after TLR7/TLR9 agonist stimulation (HEK-Blue IFN-α/β reporter); conditions: separate priming; TLR7 and TLR9 agonists
Protocol: as §1, §2
Bioactive functional type I IFN was quantified in supernatants using the reporter cell line HEK-Blue™ IFN-α/β (Invivogen). The cell line was maintained in DMEM+GlutaMax™-I (Gibco®, Life Technologies), supplemented with 10% heat-inactivated FCS, 100 μg/mL streptomycin and 200 U/mL penicillin, 100 μg/mL normocin (InvivoGen), 30 μg/mL blasticidin (InvivoGen) and 100 μg/mL zeocin (InvivoGen). […] SEAP activity was assessed by measuring optical density (OD) at 620 nm on a microplate reader (ELx808, BioTEK). […]

IFN-γ: recombinant IFN-γ (PeproTech) used for priming
secretion of IL-6 by primed HSPC-pDCs [1]: predominantly promoted
expression levels of CD303 and CD304 on HSPC-pDCs after priming [2]: improved
promotion of type I IFN response in comparison to IFN-β [3]: less effective
